Source: patent US9133219B2, “Bicyclic antibiotics” (Basilea Pharmaceutica AG, priority 2009, dated 2015)
Converted amounts (≈) assume the structure as drawn.

Tests used:
Type in all cases: cell-based
[1] = system: Staphylococcus aureus and/or Staphylococcus epidermidis and/or Streptococcus pneumoniae; assay: MIC summary statement, staphylococci and pneumococci; details: generally, for Staphylococcus aureus and/or Staphylococcus epidermidis and/or Streptococcus pneumoniae
Method: (§1) Anti-Microbial Activity Assay.
(§2) The antibacterial activity of compounds is determined by the minimal inhibitory concentration (MIC) method. MICs for all bacteria except pneumococci and Haemophilus influenzae are obtained by broth microdilution with cation-adjusted Mueller-Hinton broth (CAMHB; BBL), according to CLSI guidelines (National Committee for Clinical Laboratory Standards. 2003. Methods for dilution antimicrobial susceptibility tests for bacteria that grow aerobically, 5th ed.; approved standard M7-A6. National Committee for Clinical Laboratory Standards, Wayne, Pa.), with the following modifications: (i) for pneumococci CAMHB is supplemented with 5% (^v/v) horse serum; (ii) for Haemophilus influenzae CAMHB is supplemented with 5% (^v/v) Fildes enrichment (BBL) (Pankuch, G. A., Hoellman, D. B., Lin, G., Bajaksouzian, S., Jacobs, M. R., and Appelbaum, P. C. 1998. Activity of HMR 3647 compared to those of five agents against Haemophilus influenzae and Moraxella catarrhalis by MIC determination and time-kill assay. Antimicrob. Agents Chemother. 42:3032-3034). Microtiter plates are incubated at 35° C. in ambient air for 20 to 24 h, then inspected using an illuminated microtiter plate reader fitted with a magnifying mirror (MIC 2000; Cooke Laboratory Products, Alexandria, Va.). Compounds of the present invention are tested against several bacteria strains comprising some Acinetobacter baumannii, Enterococcus faecalis, Enterococcus faecitan, Escherichia coli, Haemophilus influenzae, Klebsiella pneumoniae, Pseudomonas aeruginosa, Staphylococcus aureus, Staphylococcus epidermidis and Streptococcus pneumoniae.

Streptococcus pneumoniae = assay: Anti-microbial activity assay, MIC by broth microdilution (CAMHB with 5% horse serum); details: Streptococcus pneumoniae; strain ATCC49619; CAMHB with 5% horse serum; read-out: MIC Streptococcus pneumoniae ATCC49619
Procedure, shortened: (§3)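 MIC read by eye on illuminated mirror reader after 20 to 24 h at 35° C, ambient air. Method: CLSI broth microdilution, CAMHB medium; S. pneumoniae tested in CAMHB + 5% v/v horse serum.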

[2] = system: Staphylococcus aureus and/or Staphylococcus epidermidis; assay: MIC summary statement, staphylococci; details: generally, for Staphylococcus aureus and/or Staphylococcus epidermidis
Procedure, shortened: as §3

Escherichia coli = assay: Anti-microbial activity assay, MIC by broth microdilution; details: Escherichia coli; strain UB1005; read-out: MIC Escherichia coli UB1005
Procedure, shortened: as §3

[3] = system: Staphylococcus epidermidis; assay: as above; details: Staphylococcus epidermidis; strain ATCC14990
Procedure, shortened: as §3

Staphylococcus aureus = assay: as above; details: Staphylococcus aureus; strain ATCC29213; read-out: MIC Staphylococcus aureus ATCC29213
Procedure, shortened: as §3

[4] = system: Staphylococcus aureus and/or Staphylococcus epidermidis and/or Streptococcus pneumoniae and/or Escherichia coli; assay: MIC summary statement, staphylococci, pneumococci and E. coli; details: generally, for S. aureus and/or S. epidermidis and/or S. pneumoniae and/or E. coli; in most case of less than 2 mg/L
Method: as §1, §2

With `COc1ccc2ncc(SCCN3CCC(NC(=O)c4ccc5c(c4)NC(=O)CS5)CC3)cc2c1` [Example 53, 3-oxo-3,4-dihydro-2H-benzo[1,4]thiazine-6-carboxylic acid {1-[2-(6-methoxy-quinolin-3-ylsulfanyl)-ethyl]-piperidin-4-yl}-amide] the MIC [1] was ≤ 2 µg/mL, the MIC (Streptococcus pneumoniae) was ≤ 2 µg/mL and the MIC [2] was ≤ 2 µg/mL. For the same molecule, the MIC (Escherichia coli) was 4 µg/mL (≈ 7.86 µM), the MIC [3] was ≤ 2 µg/mL and the MIC (Staphylococcus aureus) was ≤ 2 µg/mL. For the same molecule, the MIC [4] was ≤ 4 µg/mL.
